For experiment [1], the system named is murine leukemia L1210 cells. Put plainly: In vitro growth inhibition of L1210 cells (MTT). Format: cell-based. The conditions noted are these: Mus musculus. As for the experimental part: L1210 cells were maintained in RPMI-1640 a medium supplemented with 10% heat inactivated fetal bovine serum and […] (RPMI-L). B16 cells were maintained in RPMI-1640 medium supplemented with 15% heat inactivated fetal bovine serum and antiobiotics (RPMI-C).
Exponentially growing murine leukemia L1210 cells (1×10^3 cells) in 0.1 mL medium were seeded on day 0 in a 96-well microtiter plate. On day 1, […] aliquot of medium containing graded concentrations of test analogs was added to the initial volume. After incubation at 37° C. in a humidified incubator for 3 days, the plates were centrifuged briefly and […] of the growth medium was removed. Cell cultures were incubated with 50 μL of 3-(4,5-dimethylthiazol-2-yl)-2,5-diphenyltetrazolium bromide (MTT; 1 mg/ml in Dulbecco's phosphate buffer saline) for 4 hours at 37° C. The resulting purple formazan precipitate was solubilized with 200 μL of 0.04N HCl in isopropyl alcohol. Absorbance was read in a Titertek Multiskan MCC scaning well spectrophotometer (Flow Laboratories) at a test wavelength of 570 nm and a reference wavelength of 630 nm.
The ID50 values were determined by a computer program that fit all of the data (8 determinations per concentration and 12 concentrations per test analog) to the following equation:
Y=((Am-Ao)/(1+(X/ID50)n))+Ao
where: Am=absorbance of the control cells; Ao=absorbance of the cells in the presence of highest drug concentration; Y=observed absorbance; X=drug concentration; ID50 =dose of drug that inhibits the growth of cells to one half that of the control cells.

A further experiment concerns DLD-2 human colon tumor. Put plainly: In vivo human tumor xenograft model, DLD-2 human colon tumor in nude mice. The conditions noted are these: i.v. once daily for nine consecutive days, tumor growth inhibition, NCI criteria. From the text:
(§1) The DLD-2 human colon tumor, MX-1 human mammary carcinoma, and LX-1 human lung tumor were originally obtained from a surgically removed primary colon carcinoma, breast tumor, and non-small lung carcinoma, respectively. The human tumor lines were maintained by serial passage in athymic nude mice. The MX-1 human mammary carcinoma and LX-1 human lung tumor are established tumors used by the NCI. The DLD-2, MX-1, and LX-1 tumor models have been well characterized.
(§2) The mice used in these experiments were outbred Swiss mice or BALB/c mice bearing the nude (nu/nu) gene. On day 0 male and female mice weighing 22-30 g are inoculated with 0.2 mL of a 25% tumor mince. This mince is prepared by mincing fresh tumor tissue, grown subcutaneously in passage mice, in sterile physiological saline. Palpable tumors weighing approximately 50 mg appear in the mice within 7-10 days after inoculation. The mice are pair matched by tumor weight and sex into groups of ten each and the test compounds and vehicle control are administered intravenously (i.v.) once daily for nine consecutive days. A >20% decrease in body weight on day 5 following compound administration is considered an indication of toxicity. Tumor measurements and body weights are recorded once a week. Fifteen to 18 days after the initial injection the mice are weighed, sacrificed and the tumors excised and weighed.
(§3) The efficacy of the test compounds is determined by the extent of tumor growth inhibition in treated versus vehicle-treated control mice. Initial tumor weights (mg) are calculated from the tumor dimensions (mm) measured from caliper measurements, using the formula for a prolate ellipsoid (mg of tumor weight=(length×width^2)/2). Net tumor weights are calculated for each of the treated groups and the vehicle-treated control group by subtracting the initial tumor weight from the final tumor weight on day 15. Results are expressed as a percentage decrease relative to the mean tumor weight for the control vehicle-treated group. [formula]
(§4) The criteria of the National Cancer Institute (NCI) for activity in the in vivo cancer models were used. Tumor growth inhibition of 58-89% in the DLD-2 assay is considered moderate activity and inhibition of ≥90% is condidered good to excellent activity.
In general terms: In xenograft studies the graft and the host belong to different species.

The subject of experiment [2] is MX-1 human mammary carcinoma. The experiment can be described thus: In vivo human tumor xenograft model, MX-1 human mammary carcinoma in nude mice. The note with it: i.v. once daily for nine consecutive days, NCI criteria.
Description: as §1, §2, §3, §4

A further experiment concerns LX-1 human lung tumor. Put plainly: In vivo human tumor xenograft model, LX-1 human lung tumor in nude mice. The conditions noted are these: i.v. once daily for nine consecutive days, NCI criteria.
Description: as §1, §2, §3, §4

This note sets out measurements from US5461176A, “Processes for preparing bis-naphthalimides containing amino-acid derived linkers” (The Du Pont Merck Pharmaceutical Company, priority 1994, dated 1995).

Structures are written as SMILES. In brackets after ≈: the same amount, converted by molar mass. Where two headings read alike, the source gives them in different places. A value given as a limit tells only on which side of the number the result lay.

On to `CC(CNCCNCC(C)N1C(=O)c2cccc3cc([N+](=O)[O-])cc(c23)C1=O)N1C(=O)c2cccc3cc([N+](=O)[O-])cc(c23)C1=O` (racemic) [Example 2, (Racemate+meso)-2,2'-[1,2-ethanediylbis[imino(1-methyl-2,1-ethanediyl)]]-bis[5-nitro-1H-benz[de]isoquinoline-1,3(2H) -dione]methanesulfonate (1:2)], for which the IC50 in experiment [1] (L1210, 72 h, read-out: ID50) stood at 0.062 µg/mL (≈ 0.0993 µM). Further, in the experiment with DLD-2 human colon tumor, the “activity against DLD-2 human colon tumors” value is “excellent to outstanding activity”. Besides, the “activity in the MX-1 human breast tumor model” value in experiment [2] is “excellent to outstanding activity”. Also, in the experiment on LX-1 human lung tumor, the “activity against LX-1 human lung tumors” value is listed as “good to excellent activity (inhibition of ≥90% is condidered good to excellent activity)”.

As to `CC(CN1C(=O)c2cccc3cc([N+](=O)[O-])cc(c23)C1=O)NCCNC(C)CN1C(=O)c2cccc3cc([N+](=O)[O-])cc(c23)C1=O` (racemic) [Example 30], in experiment [1] (L1210, 72 h, read-out: ID50), the IC50 was below 0.01 µg/mL. Besides, in the experiment with DLD-2 human colon tumor, the “activity against DLD-2 human colon tumors” value was “excellent to outstanding activity”. Moreover, the “activity in the MX-1 human breast tumor model” value in experiment [2] is recorded as “excellent to outstanding activity”.

Regarding `C[C@@H](CN1C(=O)c2cccc3cc([N+](=O)[O-])cc(c23)C1=O)NCCN[C@@H](C)CN1C(=O)c2cccc3cc([N+](=O)[O-])cc(c23)C1=O` (relative stereo) [Example 42], in experiment [1] (L1210, 72 h, read-out: ID50), the IC50 is below 0.001 µg/mL.

As to `C[C@@H](CNCCNC[C@H](C)N1C(=O)c2cccc3cc([N+](=O)[O-])cc(c23)C1=O)N1C(=O)c2cccc3cc([N+](=O)[O-])cc(c23)C1=O` [Example 1, (S,S)-2,2'-[1,2-ethanediylbis[imino(1-methyl-2,1-ethanediyl)]]-bis[5-nitro-1H-benz[de]isoquinoline-1,3(2H)-dione]methanesulfonate (1:2)], the IC50 in experiment [1] (L1210, 72 h, read-out: ID50) came to 0.047 µg/mL (≈ 0.0752 µM). Also, in the experiment with DLD-2 human colon tumor, the “activity against DLD-2 human colon tumors” value is listed as “excellent to outstanding activity”. Besides, the “activity in the MX-1 human breast tumor model” value in experiment [2] is reported as “good to excellent activity (inhibition of ≥90% is condidered good to excellent activity)”.

As for `C[C@H](CNCCNC[C@@H](C)N1C(=O)c2cccc3cc([N+](=O)[O-])cc(c23)C1=O)N1C(=O)c2cccc3cc([N+](=O)[O-])cc(c23)C1=O` [Example 3, (R,R)-2,2'-[1,2-ethanediylbis[imino(1-methyl-2,1-ethanediyl)]]-bis[5-nitro-1H-benz[de]isoquinoline-1,3(2H)-dione]methanesulfonate (1:2)], the IC50 in experiment [1] (L1210, 72 h, read-out: ID50) came to 0.051 µg/mL (≈ 0.0817 µM). In the experiment with DLD-2 human colon tumor, the “activity against DLD-2 human colon tumors” value is reported as “excellent to outstanding activity”. Also, in experiment [2], the “activity in the MX-1 human breast tumor model” value is given as “excellent to outstanding activity”. In the experiment on LX-1 human lung tumor, the “activity against LX-1 human lung tumors” value is on record as “good to excellent activity (inhibition of ≥90% is condidered good to excellent activity)”.

Regarding `C[C@H](CNCCNC[C@H](C)N1C(=O)c2cccc3cc([N+](=O)[O-])cc(c23)C1=O)N1C(=O)c2cccc3cc([N+](=O)[O-])cc(c23)C1=O` [Example 26, (Meso)-2,2'-[1,2-ethanediylbis[imino(1-methyl-2,1-ethanediyl)]]-bis[5-nitro-1H-benz[de]isoquinoline-1,3(2H)-dione]methanesulfonate (1:2)], in experiment [1] (L1210, 72 h, read-out: ID50), the IC50 turned out to be 0.074 µg/mL (≈ 0.118 µM). Moreover, the “activity against DLD-2 human colon tumors” value in the experiment on DLD-2 human colon tumor is “excellent to outstanding activity”.

Take `C[C@@H](CN1C(=O)c2cccc3cc([N+](=O)[O-])cc(c23)C1=O)NCCN[C@@H](C)CN1C(=O)c2cccc3cc([N+](=O)[O-])cc(c23)C1=O` [Example 27, (S,S)-2,2'-[1,2-ethanediylbis[imino(2-methyl-2,1-ethanediyl)]]-bis[5-nitro-1H-benz[de]isoquinoline-1,3(2H)-dione]methanesulfonate (1:2)]: the IC50 in experiment [1] (L1210, 72 h, read-out: ID50) was determined as 0.0025 µg/mL (≈ 0.004 µM). The “activity against DLD-2 human colon tumors” value in the experiment on DLD-2 human colon tumor is on record as “excellent to outstanding activity”. Moreover, in experiment [2], the “activity in the MX-1 human breast tumor model” value is listed as “excellent to outstanding activity”. Besides, the “activity against LX-1 human lung tumors” value in the experiment with LX-1 human lung tumor was “good to excellent activity (inhibition of ≥90% is condidered good to excellent activity)”.

`C[C@@H](CN1C(=O)c2cccc3cccc(c23)C1=O)NCCN[C@@H](C)CN1C(=O)c2cccc3cccc(c23)C1=O` [Example 28, (S,S)-2,2'-[1,2-ethanediylbis[imino(2-methyl-2,1-ethanediyl)]]-bis[^1 H-benz[de]isoquinoline-1,3(2H)-dione]methanesulfonate (1:2)]: in experiment [1] (72 h, murine leukemia L1210 cells, 3 days incubation, MTT, read-out: ID50 (the source's name)), the IC50 worked out at 0.21 µg/mL (≈ 0.393 µM).

As for `CS(=O)(=O)O.CS(=O)(=O)O.C[C@H](CN1C(=O)c2cccc3cc([N+](=O)[O-])cc(c23)C1=O)NCCN[C@H](C)CN1C(=O)c2cccc3cc([N+](=O)[O-])cc(c23)C1=O` [Example 29, (R,R)-2,2'-[1,2-ethanediylbis[imino(2-methyl)-2,1-ethanediyl)]-bis[5-nitro-1H-benz[de]isoquinoline-1,3(2H)-dione]-methanesulfonate (1:2)], the IC50 in experiment [1] (L1210, 72 h, read-out: ID50) is below 0.01 µg/mL. Further, the “activity against DLD-2 human colon tumors” value with DLD-2 human colon tumor is on record as “good to excellent activity (inhibition of ≥90% is condidered good to excellent activity)”. In addition, the “activity in the MX-1 human breast tumor model” value in experiment [2] is recorded as “excellent to outstanding activity”. Besides, the “activity against LX-1 human lung tumors” value in the experiment with LX-1 human lung tumor is recorded as “good to excellent activity (inhibition of ≥90% is condidered good to excellent activity)”.

Take `C[C@H](CN1C(=O)c2cccc3c([N+](=O)[O-])ccc(c23)C1=O)NCCN[C@H](C)CN1C(=O)c2cccc3c([N+](=O)[O-])ccc(c23)C1=O` [Example 31]: the IC50 in experiment [1] (L1210, 72 h, read-out: ID50) turned out to be 0.19 µg/mL (≈ 0.304 µM).

Regarding `C[C@H](CN1C(=O)c2cc([N+](=O)[O-])cc3cc([N+](=O)[O-])cc(c23)C1=O)NCCN[C@H](C)CN1C(=O)c2cc([N+](=O)[O-])cc3cc([N+](=O)[O-])cc(c23)C1=O` [Example 32], in experiment [1] (L1210, 72 h, read-out: ID50), the IC50 turned out to be 0.057 µg/mL (≈ 0.0798 µM).

As for `C[C@@H](CN[C@@H](C)CN1C(=O)c2cccc3cc([N+](=O)[O-])cc(c23)C1=O)NC[C@H](C)N1C(=O)c2cccc3cc([N+](=O)[O-])cc(c23)C1=O` [Example 43], the IC50 in experiment [1] (L1210, 72 h, read-out: ID50) stood at 0.04 µg/mL (≈ 0.0626 µM).
